One assay concerns the target T1, HDAC2 (Homo sapiens, UniProt Q92769).
T1 construct: (full length with C-terminal His-tag); His (C); purchased BPS Bioscience Inc. 50002
Kind of assay: HDAC2 enzyme inhibition assay (fluorimetric). Format: biochemical. As to conditions: 1 μM compound; 3 h pre-incubation; recombinant full length HDAC2; read-out: HDAC2 % inh @ 1 μM. As to the method:
(§1) HDAC6 and HDAC2 Enzyme Inhibition Assay
(§2) A fluorimetric assay was used for testing the activity of compounds of the invention against HDAC6 and HDAC2.
(§3) The compounds were dissolved in DMSO. Serial dilutions were prepared in DMSO and then diluted 1:10 in HDAC assay buffer (Tris-buffered solution, BPS Bioscience Inc. #50031). 5 μl of the compound dilution was added to a 50 μl reaction so that the final concentration of DMSO was 1%.
(§4) The compounds were pre-incubated in duplicate at RT for 3 hours in a mixture containing HDAC assay buffer, 5 μg BSA and recombinant HDAC enzyme (see table above). The enzymatic reactions were initiated by the addition of a fluorogenic, acetylated peptide substrate based on a histone protein (BPS Bioscience Inc. #50037) to a final concentration of 10 μM. The enzymatic reaction proceeded for 30 minutes at 37° C. Then, 50 μl of 2× HDAC Developer, which contains peptidase activity and Trichostatin A (BPS Bioscience Inc. #50030) was added and the plate was incubated at RT for an additional 15 minutes. Fluorescence intensity was measured at an excitation of 360 nm and an emission of 460 nm using a Tecan Infinite M1000 microplate reader.
(§5) Trichostatin A (TSA, Selleckchem #S1045) was used as reference inhibitor.
(§6) The fluorescent intensity data were analyzed using the computer software Graphpad Prism (GraphPad Software, San Diego, CA). 100% activity was defined as the fluorescent intensity (Ft) in the absence of the compound. 0% activity was defined as the fluorescent intensity (Fb) in the absence of the enzyme. The percent activity in the presence of each compound was calculated according to the following equation: % activity=(F−Fb)/(Ft−Fb), where F=the fluorescent intensity in the presence of the compound.

In assay [1] the target is T2, HDAC6 (Homo sapiens, UniProt Q9UBN7).
T2 sequence (Q9UBN7 1-1215): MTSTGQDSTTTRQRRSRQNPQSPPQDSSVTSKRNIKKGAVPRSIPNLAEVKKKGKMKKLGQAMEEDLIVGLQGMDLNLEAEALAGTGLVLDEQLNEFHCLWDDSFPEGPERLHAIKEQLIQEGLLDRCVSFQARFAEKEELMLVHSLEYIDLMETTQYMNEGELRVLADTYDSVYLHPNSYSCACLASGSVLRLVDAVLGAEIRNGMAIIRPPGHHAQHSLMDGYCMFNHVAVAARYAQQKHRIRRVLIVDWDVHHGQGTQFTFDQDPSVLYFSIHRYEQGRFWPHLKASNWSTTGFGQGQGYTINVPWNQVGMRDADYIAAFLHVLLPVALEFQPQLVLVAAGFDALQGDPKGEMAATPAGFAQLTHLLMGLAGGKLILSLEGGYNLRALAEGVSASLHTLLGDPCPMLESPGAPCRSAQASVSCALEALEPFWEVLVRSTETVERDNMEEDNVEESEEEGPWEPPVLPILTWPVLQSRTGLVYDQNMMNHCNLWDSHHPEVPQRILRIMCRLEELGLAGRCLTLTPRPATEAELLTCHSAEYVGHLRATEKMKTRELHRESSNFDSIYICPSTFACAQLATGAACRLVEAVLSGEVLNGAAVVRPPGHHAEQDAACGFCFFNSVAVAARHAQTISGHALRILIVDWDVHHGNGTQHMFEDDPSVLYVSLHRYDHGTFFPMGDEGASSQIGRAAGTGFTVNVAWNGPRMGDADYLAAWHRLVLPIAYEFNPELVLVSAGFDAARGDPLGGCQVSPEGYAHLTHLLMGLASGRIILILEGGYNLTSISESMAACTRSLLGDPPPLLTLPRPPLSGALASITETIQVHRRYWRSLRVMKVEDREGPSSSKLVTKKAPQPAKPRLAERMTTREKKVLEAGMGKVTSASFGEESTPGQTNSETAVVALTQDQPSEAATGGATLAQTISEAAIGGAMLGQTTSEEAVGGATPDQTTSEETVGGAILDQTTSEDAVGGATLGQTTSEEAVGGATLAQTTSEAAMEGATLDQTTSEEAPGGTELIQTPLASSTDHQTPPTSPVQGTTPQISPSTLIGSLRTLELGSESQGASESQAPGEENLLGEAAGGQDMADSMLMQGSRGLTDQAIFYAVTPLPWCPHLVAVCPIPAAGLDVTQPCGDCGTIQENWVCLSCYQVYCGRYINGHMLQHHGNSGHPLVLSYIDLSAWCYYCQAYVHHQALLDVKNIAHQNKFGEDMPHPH
Nature of the assay: HDAC6 enzyme inhibition assay (fluorimetric). Format: biochemical. The settings on record: 1 μM compound; 3 h pre-incubation; recombinant full length HDAC6; read-out: HDAC6 % inh @ 1 μM. How it is done: as §1, §2, §3, §4, §5, §6

Assay [2] addresses T2, HDAC6. Kind of assay: In vitro cell-based assay: acetylation levels of Alpha-Tubulin by Western Blot in MOLP8 cells. More on the design: endogenous in cells; host or cells: MOLP8. As to conditions: 18 h, acetyl-alpha-tubulin relative band intensity, ACY-1215 1 μM = 100%. The gist of the method: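 MOLP8 cells treated with compounds at 5 and 1 μM for 18 h at 37° C.; acetyl-alpha-tubulin measured by Western blot of RIPA extracts (7 μg protein). Bands normalized to total protein or beta-actin, expressed relative to ACY-1215 1 μM (100%), then classed.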

T1 sequence (Q92769 whole entry): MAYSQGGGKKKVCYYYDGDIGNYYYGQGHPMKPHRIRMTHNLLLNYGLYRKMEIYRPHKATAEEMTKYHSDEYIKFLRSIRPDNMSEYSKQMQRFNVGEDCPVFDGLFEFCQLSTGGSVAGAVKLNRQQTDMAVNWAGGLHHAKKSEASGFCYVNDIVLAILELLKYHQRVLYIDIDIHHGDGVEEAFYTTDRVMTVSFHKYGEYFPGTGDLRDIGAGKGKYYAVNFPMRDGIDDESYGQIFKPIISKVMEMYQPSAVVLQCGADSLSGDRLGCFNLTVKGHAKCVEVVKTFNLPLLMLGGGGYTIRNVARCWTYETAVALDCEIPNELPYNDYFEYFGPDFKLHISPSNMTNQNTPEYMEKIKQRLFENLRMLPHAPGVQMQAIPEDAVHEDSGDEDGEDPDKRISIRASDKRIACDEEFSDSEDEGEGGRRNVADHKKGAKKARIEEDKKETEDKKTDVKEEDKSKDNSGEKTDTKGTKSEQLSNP

Take `CCCCn1c(C(=O)N(CC)CC)cc2cc(-c3cc(-c4noc(C(F)(F)F)n4)ccn3)ncc21` [Example 1w, 1-Butyl-N,N-diethyl-5-(4-(5-(trifluoromethyl)-1,2,4-oxadiazol-3-yl)pyridin-2-yl)-1H-pyrrolo[2,3-c]pyridine-2-carboxamide]: the inhibition at 1 µM on HDAC2 amounted to 6%. The inhibition at 1 µM at HDAC6 [1] came out at 86%. Moreover, at HDAC6 [2], the “Cellular activity @1 uM” value is on record as “+ (50-150)” and the “Cellular activity @5 uM” value is recorded as “++ (150-300)”.

For `CCCCn1cc(CN(C)C)c2cc(-c3cc(-c4noc(C(F)(F)F)n4)ccn3)ncc21` [Example 3, 1-(1-Butyl-5-(4-(5-(trifluoromethyl)-1,2,4-oxadiazol-3-yl)pyridin-2-yl)-1-pyrrolo[2,3-c]pyridin-3-yl)-N,N-dimethylmethanamine], the inhibition at 1 µM on HDAC2 was found to be 30%. Moreover, the inhibition at 1 µM at HDAC6 [1] was 90%. Also, on HDAC6 [2], the “Cellular activity @1 uM” value is on record as “+ (50-150)” and the “Cellular activity @5 uM” value was “+++ (>300)”.

Take `CN(CC1CC1)c1ccc(-c2cc(-c3noc(C(F)(F)F)n3)ccn2)nc1` [Example 1j, N-(Cyclopropylmethyl)-N-methyl-4′-(5-(trifluoromethyl)-1,2,4-oxadiazol-3-yl)-[2,2′-bipyridin]-5-amine]: the inhibition at 1 µM on HDAC2 turned out to be 10%. For the same compound, the inhibition at 1 µM on HDAC6 [1] amounted to 69%. Besides, at HDAC6 [2], the “Cellular activity @1 uM” value was “− (<50)” and the “Cellular activity @5 uM” value is recorded as “++ (150-300)”.

As to `CCCn1cc(-c2cn[nH]c2)c2cc(-c3cc(-c4noc(C(F)(F)F)n4)ccn3)ncc21` [Example 1v, 3-(2-(1-Propyl-3-(1H-pyrazol-4-yl)-1H-pyrrolo[2,3-c]pyridin-5-yl)pyridin-4-yl)-5-(trifluoromethyl)-1,2,4-oxadiazole], the inhibition at 1 µM at HDAC2 turned out to be 3%; at HDAC6 [1], 66%. In addition, the “Cellular activity @1 uM” value at HDAC6 [2] is “+ (50-150)”. For the same compound, on HDAC6 [2], the “Cellular activity @5 uM” value was “+++ (>300)”.

As to `COCCn1ccc2cnc(-c3cc(-c4noc(C(F)(F)F)n4)ccn3)cc21` [Example 1au, 3-(2-(1-(2-Methoxyethyl)-1H-pyrrolo[3,2-c]pyridin-6-yl)pyridin-4-yl)-5-(trifluoromethyl)-1,2,4-oxadiazole], the inhibition at 1 µM turned out to be 19% at HDAC2 and 85% at HDAC6 [1]. Further, the “Cellular activity @1 uM” value on HDAC6 [2] is listed as “+ (50-150)”. Further, the “Cellular activity @5 uM” value at HDAC6 [2] was “++ (150-300)”.

Take `CCCn1cc(CO)c2cc(-c3cc(-c4noc(C(F)(F)F)n4)ccn3)ncc21` [Example 1ah, (1-Propyl-5-(4-(5-(trifluoromethyl)-1,2,4-oxadiazol-3-yl)pyridin-2-yl)-1H-pyrrolo[2,3-c]pyridin-3-yl)methanol]: the inhibition at 1 µM on HDAC2 turned out to be 35%. Further, the inhibition at 1 µM at HDAC6 [1] stood at 96%. In addition, on HDAC6 [2], the “Cellular activity @1 uM” value is “+ (50-150)” and the “Cellular activity @5 uM” value is recorded as “++ (150-300)”.

For `FC(F)(F)c1nc(-c2ccnc(-c3cc4[nH]ccc4cn3)c2)no1` [Example 1ak, 3-(2-(1H-Pyrrolo[3,2-c]pyridin-6-yl)pyridin-4-yl)-5-(trifluoromethyl)-1,2,4-oxadiazole], at HDAC2, the inhibition at 1 µM is 14%. In addition, the inhibition at 1 µM on HDAC6 [1] worked out at 90%. Further, at HDAC6 [2], the “Cellular activity @1 uM” value was “+ (50-150)” and the “Cellular activity @5 uM” value was “++ (150-300)”.

As to `CCN(CC)CCCOc1ccc(-c2cc(-c3noc(C(F)(F)F)n3)ccn2)nc1` [Example 1c, N,N-Diethyl-3-((4′-(5-(trifluoromethyl)-1,2,4-oxadiazol-3-yl)-[2,2′-bipyridin]-5-yl)oxy)propan-1-amine], at HDAC2, the inhibition at 1 µM was 3%. Moreover, at HDAC6 [1], the inhibition at 1 µM came to 89%. For the same compound, at HDAC6 [2], the “Cellular activity @1 uM” value is listed as “+ (50-150)” and the “Cellular activity @5 uM” value is on record as “++ (150-300)”.

Turning to `FC(F)(F)c1nc(-c2ccnc(-c3ccc(OCCCN4CCOCC4)cn3)c2)no1` [Example 1e, 4-(3-((4′-(5-(Trifluoromethyl)-1,2,4-oxadiazol-3-yl)-[2,2′-bipyridin]-5-yl)oxy)propyl)morpholine], at HDAC2, the inhibition at 1 µM is 9%. The inhibition at 1 µM at HDAC6 [1] came out at 84%. At HDAC6 [2], the “Cellular activity @1 uM” value is on record as “+ (50-150)” and the “Cellular activity @5 uM” value was “++ (150-300)”.

Turning to `FC1(F)CCN(CCn2ccc3cnc(-c4cc(-c5noc(C(F)(F)F)n5)ccn4)cc32)CC1` [Example 1ab, 3-(2-(1-(2-(4,4-Difluoropiperidin-1-yl)ethyl)-1H-pyrrolo[3,2-c]pyridin-6-yl)pyridin-4-yl)-5-(trifluoromethyl)-1,2,4-oxadiazole], the inhibition at 1 µM at HDAC2 was 38%. Moreover, on HDAC6 [1], the inhibition at 1 µM came out at 93%. Moreover, at HDAC6 [2], the “Cellular activity @1 uM” value is reported as “++ (150-300)” and the “Cellular activity @5 uM” value was “++ (150-300)”.

Regarding `FC(F)(F)c1nc(-c2ccnc(-c3n[nH]c4cccnc34)c2)no1` [Example 4, 3-(2-(1H-Pyrazolo[4,3-b]pyridin-3-yl)pyridin-4-yl)-5-(trifluoromethyl)-1,2,4-oxadiazole], on HDAC2, the inhibition at 1 µM came out at 25%. For the same compound, the inhibition at 1 µM at HDAC6 [1] was found to be 96%. For the same compound, at HDAC6 [2], the “Cellular activity @1 uM” value was “++ (150-300)” and the “Cellular activity @5 uM” value is “+++ (>300)”.

The values above are taken from patent US12668591B2, “1,2,4-oxadiazole derivatives as histone deacetylase 6 inhibitors” (Oryzon Genomics, S.A., priority 2017, dated 2026).
